In series [1] the target is T1, Group IVA cPLA2 (GIVA PLA2) (Homo sapiens, UniProt P47712).
T1 sequence (P47712 1-749): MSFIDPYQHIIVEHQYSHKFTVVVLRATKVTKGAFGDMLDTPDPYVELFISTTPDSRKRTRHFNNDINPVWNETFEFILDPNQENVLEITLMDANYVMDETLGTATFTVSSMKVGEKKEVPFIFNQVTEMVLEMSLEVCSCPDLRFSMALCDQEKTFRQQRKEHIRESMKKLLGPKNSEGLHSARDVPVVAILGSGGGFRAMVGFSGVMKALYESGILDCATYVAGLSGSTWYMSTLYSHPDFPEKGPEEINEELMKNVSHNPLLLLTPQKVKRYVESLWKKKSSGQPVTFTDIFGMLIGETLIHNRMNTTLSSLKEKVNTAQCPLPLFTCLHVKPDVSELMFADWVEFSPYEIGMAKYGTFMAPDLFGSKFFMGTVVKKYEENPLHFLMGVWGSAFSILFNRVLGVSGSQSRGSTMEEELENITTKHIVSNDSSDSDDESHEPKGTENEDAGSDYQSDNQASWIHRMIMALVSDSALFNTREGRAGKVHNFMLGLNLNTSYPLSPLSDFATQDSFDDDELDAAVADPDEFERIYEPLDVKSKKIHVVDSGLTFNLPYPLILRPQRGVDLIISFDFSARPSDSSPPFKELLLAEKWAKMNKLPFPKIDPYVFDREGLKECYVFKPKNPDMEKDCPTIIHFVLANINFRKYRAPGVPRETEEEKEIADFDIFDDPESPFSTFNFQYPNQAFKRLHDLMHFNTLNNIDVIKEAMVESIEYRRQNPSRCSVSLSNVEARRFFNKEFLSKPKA
In words: In vitro Group IVA cPLA2 mixed micelle assay. It is filed as biochemical. Conditions: for Inhibition of GIVA PLA2: at highest dose; for Group IVA XI(50) (mole fraction): Table 1b. How it is done:
(§1) Numerous 2-oxoamides were tested for inhibition of PLA2s in in vitro assay systems. The data, summarized in Tables 1a, 1b and 2 are represented as XI(50) values unless otherwise noted. XI(50) is defined as the inhibitor concentration that produced 50% inhibition. XI(50) is used as opposed to the more common IC50 because GIVA and GVIA PLA2 are active at a two-dimensional lipid interface rather than in three-dimensional solution. (Deems, Anal. Biochem., 287:1-16, 2000). The 2-oxoamide inhibitors likely partition to the micelle interface and therefore must be represented as a percentage of surface concentration (mole fraction) as opposed to bulk concentration (molar units). (Kokotos, et al., J. Med. Chem., 45:2891-2893, 2002).
(§2) In vitro Group IV cPLA2 and Group VI iPLA2 assays were done as previously described (Kokotos, et al., supra, 2002). Briefly, 100 μM lipid substrate and 100,000 cpm radiolabeled analog were dried down under N2 and dissolved in assay buffer containing 400 μM Triton X-100 to yield a mixed micelle substrate solution. Inhibitors dissolved in DMSO were added to the reaction tubes and allowed to incubate with substrate for five minutes at 40° C. Pure enzyme was added to yield a final volume of 500 μl, and digestion was carried out at 40° C. for 30 minutes. Reactions were quenched and extracted using the Dole method and products were quantified by liquid scintillation counting. Percent inhibition was determined at a range of inhibitor mole fraction concentrations for XI(50) calculations.

For series [2], the target named is T2, Group VIA iPLA2 (GVIA PLA2) (Homo sapiens, UniProt O60733).
T2 sequence (O60733 1-806): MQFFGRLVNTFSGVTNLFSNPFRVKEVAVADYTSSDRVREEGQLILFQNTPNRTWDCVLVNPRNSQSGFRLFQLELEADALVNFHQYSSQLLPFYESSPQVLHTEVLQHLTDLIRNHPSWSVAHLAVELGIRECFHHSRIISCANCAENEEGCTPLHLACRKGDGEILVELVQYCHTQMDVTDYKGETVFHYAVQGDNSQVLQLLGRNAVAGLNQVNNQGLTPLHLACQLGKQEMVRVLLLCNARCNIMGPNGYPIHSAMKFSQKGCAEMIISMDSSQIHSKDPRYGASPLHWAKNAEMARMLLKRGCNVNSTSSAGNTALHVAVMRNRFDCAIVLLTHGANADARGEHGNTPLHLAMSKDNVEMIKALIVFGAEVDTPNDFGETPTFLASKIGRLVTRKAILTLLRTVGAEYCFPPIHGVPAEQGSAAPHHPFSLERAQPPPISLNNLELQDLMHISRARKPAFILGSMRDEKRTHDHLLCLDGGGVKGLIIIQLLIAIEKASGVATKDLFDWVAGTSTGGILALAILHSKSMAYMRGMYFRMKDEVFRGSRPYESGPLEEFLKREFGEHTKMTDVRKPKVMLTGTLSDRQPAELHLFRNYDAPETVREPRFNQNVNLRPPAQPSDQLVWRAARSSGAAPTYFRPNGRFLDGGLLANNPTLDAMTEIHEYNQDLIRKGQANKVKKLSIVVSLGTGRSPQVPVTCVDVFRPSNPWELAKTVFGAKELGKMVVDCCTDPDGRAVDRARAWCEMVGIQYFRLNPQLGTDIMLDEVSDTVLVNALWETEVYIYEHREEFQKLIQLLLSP
In words: In vitro Group VIA iPLA2 mixed micelle assay. It is filed as biochemical. Conditions: for Inhibition of GVIA PLA2: at highest dose. The protocol:
as §1, §2

In the next series the test system is spinal release of PGE2. In words: Intrathecal dialysis and PGE2 assay. It is filed as in vivo, rat. Conditions: 3 mg/kg IP pretreatment. The source says:
For spinal drug injections, lumbar catheters were implanted in rats under isoflurane anesthesia according to a modification of the procedure described by Yaksh (Yaksh and Rudy, supra, 1976). A polyethylene catheter (PE-5; Spectranetics, 0.014 in OD) was inserted into the intrathecal space and advanced to the rostral edge of the lumbar enlargement through an incision in the atlanto-occipital membrane. Five days after implantation rats were entered into the study. In separate experiments to assess spinal prostaglandins release, rats were prepared with lumbar loop dialysis catheters with three lumens, as previously described, see (Yaksh, et al., supra, 2001).
In brief, the outer two lumens were connected to a length of dialysis tubing (10 Kda cut off). The catheter was then implanted intrathecally using the same technique as described above for the intrathecal catheter. A three-day interval was allowed to elapse prior to including the animal in a study. In all cases, the exclusion criteria were i) presence of any neurological sequelae, ii) 20% weight loss after implantation, or iii) catheter occlusion.
Spinal dialysis experiments to define the spinal release of PGE2 were conducted in unanesthetized rats 3 days after dialysis catheter implantation. A syringe pump (Harvard, Natick, Mass.) was connected and dialysis tubing was perfused with artificial cerebro spinal fluid (ACSF) at a rate of 10 μl/min. The ACSF contained (mM) 151.1 Na^+, 2.6 K^+, 0.9 Mg^2+, 1.3 Ca^2+, 122.7 Cl^−, 21.0 HCO3, 2.5 HPO4 and 3.5 dextrose and was bubbled with 95% O2/5% CO2 before each experiment to adjust the final pH to 7.2. The efflux (20 min per fraction) was collected in an automatic fraction collector (Eicom, Kyoto, Japan) at 4° C. […] The concentration of PGE2 in spinal dialysate was measured by ELISA using a commercially available kit (Assay Designs 90001, Assay Designs, Ann Arbor, Mich.). The antibody is selective for PGE2 with less than 2.0% cross-reactivity to PGF1, PGF2, 6-ketoPGF1, PGA2 or PGB2, but cross-reacts with PGE1 and PGE3.

The target in a further series is T3, GV sPLA2 (Homo sapiens, UniProt P39877).
T3 sequence (P39877 21-138): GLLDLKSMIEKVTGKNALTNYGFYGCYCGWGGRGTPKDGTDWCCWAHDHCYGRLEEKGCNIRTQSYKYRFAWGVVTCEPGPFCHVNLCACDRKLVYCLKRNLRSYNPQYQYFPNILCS
Kind of series: GV sPLA2 activity assay. It is filed as biochemical. The protocol:
GV sPLA2 activity was measured in a similar assay. The final assay buffer was composed of 50 mM Tris-HCl (pH 8.0) and 5 mM CaCl2. Each assay was performed in 500 μL total volume made up of 100 μL of 5× substrate solution (20 μL of 10 mM Triton X-100 and 80 μL assay buffer), 390 μL assay buffer, 10 μL GV sPLA2 solution (1 μL of 40 ng/μL stock and 9 μL assay buffer), and 5 μL of DMSO or 2-oxoamide in DMSO. The 5× substrate solution was prepared by drying down the phospholipids (in organic solvent) with N2. The appropriate volume of 10 mM Triton X-100 was added, heated and vortexed until clear. Then assay buffer was added to make a 5× substrate solution. The final mixed micelles were at 400 μM Triton X-100 and 100 μM DPPC (of which 100,000 cpm of ^14C-DPPC).

One may read the melting point as the temperature, or range, at which the solid turns liquid. In general, inhibition refers to how much of the control response was suppressed.

For `CCCCCCCCC=CCCCCCCCC(=O)C(=O)NCCCC(=O)O` [AX040, 4-(2-Oxo-nonadec-10-enoylamino)-butyric acid], the melting point is 57 to 59 °C. Also, in series [1], the “inhibition of GIVA PLA2 (cPLA2), in words” value is reported as “inhibit GIVA PLA2”. Moreover, in series [2], the “inhibition of GVIA PLA2 (iPLA2), in words” value is listed as “do not inhibit GVIA PLA2” and the “Inhibition of GVIA PLA2” value is listed as “ND (negligible inhibition (0-25%) at highest dose)”.

In turn, `CCCCCCCCCCCCCCC(=O)C(=O)NC(C=CC(=O)O)CCCC` (centres unmarked) [AX074, 4-(2-Oxo-hexadecanoylamino)-oct-2-enoic acid] returned a melting point of 65 to 67 °C. Further, in series [1], the “Inhibition of GIVA PLA2, XI(50)” value is “XI(50) =0.003 ± 0.001 mole fraction” and the “inhibition of GIVA PLA2 (cPLA2), in words” value is given as “inhibit GIVA PLA2”. In series [2], the “inhibition of GVIA PLA2 (iPLA2), in words” value is “do not inhibit GVIA PLA2” and the “Inhibition of GVIA PLA2” value was “ND (negligible inhibition (0-25%) at highest dose)”.

`O=C(O)CCCNC(=O)C(=O)CCCc1ccccc1` [AX036, 4-(2-Oxo-5-phenyl-pentanoylamino)-butyric acid] had a melting point of 65 to 67 °C. Also, the “Inhibition of GIVA PLA2” value in series [1] is reported as “ND (negligible inhibition (0-25%) at highest dose)”. Also, the “Inhibition of GVIA PLA2” value in series [2] is given as “ND (negligible inhibition (0-25%) at highest dose)”.

With `O=C(O)CCCNC(=O)C(=O)CCCCc1ccccc1` [AX035, 4-(2-Oxo-6-phenyl-hexanoylamino)-butyric acid], the melting point fell in the range of 60 to 62 °C. Moreover, the “Inhibition of GIVA PLA2” value in series [1] is “ND (negligible inhibition (0-25%) at highest dose)”. Further, in series [2], the “Inhibition of GVIA PLA2” value was “ND (negligible inhibition (0-25%) at highest dose)”.

Consider `COC(=O)CCCNC(=O)C(=O)CCCc1ccccc1` [AX037, 4-(2-Oxo-5-phenyl-pentanoylamino)-butyric acid methyl ester], for which the melting point is 30 to 31 °C. The “Inhibition of GIVA PLA2” value in series [1] was “ND (negligible inhibition (0-25%) at highest dose)”. For the same molecule, the “Inhibition of GVIA PLA2” value in series [2] was “ND (negligible inhibition (0-25%) at highest dose)”.

In turn, `COC(=O)CCCNC(=O)C(=O)CCCCc1ccccc1` [AX038, 4-(2-Oxo-6-phenyl-hexanoylamino)-butyric acid methyl ester] showed a melting point of 52 to 54 °C. Besides, the “Inhibition of GIVA PLA2” value in series [1] is on record as “ND (negligible inhibition (0-25%) at highest dose)”. For the same molecule, in series [2], the “Inhibition of GVIA PLA2” value was “ND (negligible inhibition (0-25%) at highest dose)”.

Turning to `CCC(=O)C(=O)NCCCC(=O)O` [AX006], in series [1], the “inhibition of GIVA PLA2 (cPLA2), in words” value is on record as “inhibit GIVA PLA2” and the “Group IVA XI(50) (mole fraction)” value came to 0.024 ± 0.015 mole fraction. Further, in series [2], the “inhibition of GVIA PLA2 (iPLA2), in words” value was “do not inhibit GVIA PLA2” and the “Inhibition of GVIA PLA2” value was “ND (negligible inhibition (0-25%) at highest dose)”. Moreover, the “Group VIA XI(50), class” value in series [2] (at 0.091 mole fraction) is given as “N.D. (25% inhibition or less at 0.091 mole fraction)”. Further, the “IT SP-evoked release of PGE2 in spinal dialysate” value with spinal release of PGE2 is recorded as “significant increase as compared to vehicle only”.

In turn, `CCCCCCCCCCCCCCC(=O)C(=O)NCCCC(=O)OC(C)(C)C` [AX057, tert-Butyl 4-[(2-oxohexadecanoyl)amino]butanoate] returned a melting point of 61 to 62 °C. For the same molecule, the “Group IVA XI(50) (mole fraction)” value in series [1] came to 0.031 ± 0.017 mole fraction. Also, the “Group VIA XI(50) (mole fraction)” value in series [2] (Table 1b) was 0.026 ± 0.014 mole fraction. Moreover, in the series with spinal release of PGE2, the “IT SP-evoked release of PGE2 in spinal dialysate” value was “significant increase as compared to vehicle only”. Besides, the “efficacy against sPLA2” value on GV sPLA2 (at 0.091 mole fraction) amounted to 76.7%.

Take `CCC(=O)C(=O)NCC(=O)OC(C)(C)C` [AX111]: the inhibition at 0.091 mole fraction in series [1] (at 0.091 mole fraction, read-out: cPLA2 inh, percent inhibition (converted)) was 79.6%; in series [2] (at 0.091 mole fraction, read-out: iPLA2 inh, percent inhibition) it was 53.1%; on GV sPLA2 (read-out: sPLA2 inh., percent inhibition), 95.9%.

The record behind these values is US20080319065A1, “Systemic and Intrathecal Effects of a Novel Series of Phospholipase A2 Inhibitors on Hyperalgesia and Spinal Pge2 Release” (The Regents of the University of California, priority 2005, published 2008).
